Results reported in patent US8192962B2, “Processes for detecting toxic substances” (Daikin Industries, Ltd., priority 2001, dated 2012).

Tested on: DNA repair protein genes
Assay: DNA chip mRNA expression in yeast, DNA repair protein genes (Table 3)
Format: cell-based, Saccharomyces cerevisiae S288C
Conditions: incubated two hours, concentrations as in the 1st table
Method in brief: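 Untreated cultures served as reference for log-phase S288C yeast given a growth-inhibiting, non-lethal toxicant dose for 2 h at 25° C. in YPD. Gene expression was measured on a whole-genome DNA chip from Cy3/Cy5-labeled cDNA.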

C=CC=O [(14), acrolein]
The level of expressed mRNA in the presence of chemical substance/The level of expressed mRNA in the absence of chemical substance (yeast gene YAL015C): 1.6 | The level of expressed mRNA in the presence of chemical substance/The level of expressed mRNA in the absence of chemical substance (yeast gene YAR007C): 1.4 | The level of expressed mRNA in the presence of chemical substance/The level of expressed mRNA in the absence of chemical substance (yeast gene YBL019W): 1.1 | The level of expressed mRNA in the presence of chemical substance/The level of expressed mRNA in the absence of chemical substance (yeast gene YBR073W): 1.0 | The level of expressed mRNA in the presence of chemical substance/The level of expressed mRNA in the absence of chemical substance (yeast gene YBR272C): 1.0 | The level of expressed mRNA in the presence of chemical substance/The level of expressed mRNA in the absence of chemical substance (yeast gene YCR014C): 1.0 | The level of expressed mRNA in the presence of chemical substance/The level of expressed mRNA in the absence of chemical substance (yeast gene YDL017W): 1.3 | The level of expressed mRNA in the presence of chemical substance/The level of expressed mRNA in the absence of chemical substance (yeast gene YDL059C): 4.7 | The level of expressed mRNA in the presence of chemical substance/The level of expressed mRNA in the absence of chemical substance (yeast gene YDL200C): 1.8 | The level of expressed mRNA in the presence of chemical substance/The level of expressed mRNA in the absence of chemical substance (yeast gene YDR054C): 1.1 | The level of expressed mRNA in the presence of chemical substance/The level of expressed mRNA in the absence of chemical substance (yeast gene YDR369C): 0.7 | The level of expressed mRNA in the presence of chemical substance/The level of expressed mRNA in the absence of chemical substance (yeast gene YEL019C): 1.7 | The level of expressed mRNA in the presence of chemical substance/The level of expressed mRNA in the absence of chemical substance (yeast gene YEL037C): 1.0 | The level of expressed mRNA in the presence of chemical substance/The level of expressed mRNA in the absence of chemical substance (yeast gene YER162C): 0.8 | The level of expressed mRNA in the presence of chemical substance/The level of expressed mRNA in the absence of chemical substance (yeast gene YFL014W): 7.3 | The level of expressed mRNA in the presence of chemical substance/The level of expressed mRNA in the absence of chemical substance (yeast gene YGL058W): 1.3 | The level of expressed mRNA in the presence of chemical substance/The level of expressed mRNA in the absence of chemical substance (yeast gene YGL091C): 3.1 | The level of expressed mRNA in the presence of chemical substance/The level of expressed mRNA in the absence of chemical substance (yeast gene YGL127C): 1.0 | The level of expressed mRNA in the presence of chemical substance/The level of expressed mRNA in the absence of chemical substance (yeast gene YGL163C): 1.6 | The level of expressed mRNA in the presence of chemical substance/The level of expressed mRNA in the absence of chemical substance (yeast gene YGL249W): 1.9 | The level of expressed mRNA in the presence of chemical substance/The level of expressed mRNA in the absence of chemical substance (yeast gene YGR180C): 0.9 | The level of expressed mRNA in the presence of chemical substance/The level of expressed mRNA in the absence of chemical substance (yeast gene YGR231C): 2.2 | The level of expressed mRNA in the presence of chemical substance/The level of expressed mRNA in the absence of chemical substance (yeast gene YGR258C): 1.2 | The level of expressed mRNA in the presence of chemical substance/The level of expressed mRNA in the absence of chemical substance (yeast gene YHR164C): 1.3 | The level of expressed mRNA in the presence of chemical substance/The level of expressed mRNA in the absence of chemical substance (yeast gene YIL036W): 1.1 | The level of expressed mRNA in the presence of chemical substance/The level of expressed mRNA in the absence of chemical substance (yeast gene YIL072W): 2.0 | The level of expressed mRNA in the presence of chemical substance/The level of expressed mRNA in the absence of chemical substance (yeast gene YIL143C): 1.0 | The level of expressed mRNA in the presence of chemical substance/The level of expressed mRNA in the absence of chemical substance (yeast gene YIL153W): 1.0 | The level of expressed mRNA in the presence of chemical substance/The level of expressed mRNA in the absence of chemical substance (yeast gene YIR002C): 1.1 | The level of expressed mRNA in the presence of chemical substance/The level of expressed mRNA in the absence of chemical substance (yeast gene YJL026W): 1.0 | The level of expressed mRNA in the presence of chemical substance/The level of expressed mRNA in the absence of chemical substance (yeast gene YJR046W): 1.0 | The level of expressed mRNA in the presence of chemical substance/The level of expressed mRNA in the absence of chemical substance (yeast gene YJR052W): 1.4 | The level of expressed mRNA in the presence of chemical substance/The level of expressed mRNA in the absence of chemical substance (yeast gene YKL145W): 1.0 | The level of expressed mRNA in the presence of chemical substance/The level of expressed mRNA in the absence of chemical substance (yeast gene YLR103C): 1.0 | The level of expressed mRNA in the presence of chemical substance/The level of expressed mRNA in the absence of chemical substance (yeast gene YLR233C): 1.1 | The level of expressed mRNA in the presence of chemical substance/The level of expressed mRNA in the absence of chemical substance (yeast gene YLR288C): 1.2 | The level of expressed mRNA in the presence of chemical substance/The level of expressed mRNA in the absence of chemical substance (yeast gene YML032C): 1.0 | The level of expressed mRNA in the presence of chemical substance/The level of expressed mRNA in the absence of chemical substance (yeast gene YML058W): 1.1 | The level of expressed mRNA in the presence of chemical substance/The level of expressed mRNA in the absence of chemical substance (yeast gene YMR035W): 1.3 | The level of expressed mRNA in the presence of chemical substance/The level of expressed mRNA in the absence of chemical substance (yeast gene YMR072W): 1.2 | The level of expressed mRNA in the presence of chemical substance/The level of expressed mRNA in the absence of chemical substance (yeast gene YMR096W): 4.7 | The level of expressed mRNA in the presence of chemical substance/The level of expressed mRNA in the absence of chemical substance (yeast gene YMR284W): 1.2 | The level of expressed mRNA in the presence of chemical substance/The level of expressed mRNA in the absence of chemical substance (yeast gene YNL213C): 1.8 | The level of expressed mRNA in the presence of chemical substance/The level of expressed mRNA in the absence of chemical substance (yeast gene YNL250W): 1.6 | The level of expressed mRNA in the presence of chemical substance/The level of expressed mRNA in the absence of chemical substance (yeast gene YNL261W): 1.4 | The level of expressed mRNA in the presence of chemical substance/The level of expressed mRNA in the absence of chemical substance (yeast gene YNL312W): 1.1 | The level of expressed mRNA in the presence of chemical substance/The level of expressed mRNA in the absence of chemical substance (yeast gene YOL043C): 1.5 | The level of expressed mRNA in the presence of chemical substance/The level of expressed mRNA in the absence of chemical substance (yeast gene YOR005C): 1.2 | The level of expressed mRNA in the presence of chemical substance/The level of expressed mRNA in the absence of chemical substance (yeast gene YOR386W): 0.9 | The level of expressed mRNA in the presence of chemical substance/The level of expressed mRNA in the absence of chemical substance (yeast gene YPL022W): 0.9 | The level of expressed mRNA in the presence of chemical substance/The level of expressed mRNA in the absence of chemical substance (yeast gene YPL164C): 0.9 | The level of expressed mRNA in the presence of chemical substance/The level of expressed mRNA in the absence of chemical substance (yeast gene YPL194W): 1.1 | The level of expressed mRNA in the presence of chemical substance/The level of expressed mRNA in the absence of chemical substance (yeast gene YPR025C): 1.3

C[S+](C)[O-] [(15), dimethylsulfoxide]
The level of expressed mRNA in the presence of chemical substance/The level of expressed mRNA in the absence of chemical substance (yeast gene YBR272C): 0.5 | The level of expressed mRNA in the presence of chemical substance/The level of expressed mRNA in the absence of chemical substance (yeast gene YCR014C): 0.7 | The level of expressed mRNA in the presence of chemical substance/The level of expressed mRNA in the absence of chemical substance (yeast gene YDL059C): 0.7 | The level of expressed mRNA in the presence of chemical substance/The level of expressed mRNA in the absence of chemical substance (yeast gene YDR054C): 1.6 | The level of expressed mRNA in the presence of chemical substance/The level of expressed mRNA in the absence of chemical substance (yeast gene YEL037C): 1.6 | The level of expressed mRNA in the presence of chemical substance/The level of expressed mRNA in the absence of chemical substance (yeast gene YGL091C): 0.7 | The level of expressed mRNA in the presence of chemical substance/The level of expressed mRNA in the absence of chemical substance (yeast gene YGL249W): 0.7 | The level of expressed mRNA in the presence of chemical substance/The level of expressed mRNA in the absence of chemical substance (yeast gene YGR180C): 1.3 | The level of expressed mRNA in the presence of chemical substance/The level of expressed mRNA in the absence of chemical substance (yeast gene YIL072W): 1.4 | The level of expressed mRNA in the presence of chemical substance/The level of expressed mRNA in the absence of chemical substance (yeast gene YIL143C): 1.3 | The level of expressed mRNA in the presence of chemical substance/The level of expressed mRNA in the absence of chemical substance (yeast gene YNL250W): 1.3 | The level of expressed mRNA in the presence of chemical substance/The level of expressed mRNA in the absence of chemical substance (yeast gene YNL261W): 0.7 | The level of expressed mRNA in the presence of chemical substance/The level of expressed mRNA in the absence of chemical substance (yeast gene YPL164C): 1.3
